These results are taken from US20220298146A1, “HETEROCYCLIC DERIVATIVE AND USE THEREOF” (Transthera Sciences (Nanjing), Inc., priority 2019, published 2022).

For one experiment, the target named is T1, Ron (h) (Homo sapiens, UniProt Q04912).
T1 construct: purchased
Briefly: Enzymatic activity assay, Ron (h) kinase, [γ-33P]-ATP. Type of experiment: biochemical. Particulars: 10 μM [γ-33P]-ATP, 40 min, room temperature; read-out: Inhibitory Activity on Ron (h) kinase, IC50. The protocol:
(§1) Test samples: the compounds of the present invention, having structures and preparation methods shown above.
(§2) (1) Preparation of Compound Stock Solutions
(§3) Compounds were each dissolved in 100% DMSO to prepare stock solutions with a maximum concentration of 500 μM.
(§4) (2) Preparation of Compound Working Solutions
(§5) The compound stock solutions were diluted to final concentrations of 500 μM, 150 μM, 50 μM, 15 μM, 5 μM, 1.5 μM, 0.5 μM, 0.15 μM and 0.05 μM to prepare compound working solutions (50×).
(3) Preparation of Different Enzymatic Reaction Solutions
Ron (h) enzyme was dissolved in a mixture of 8 mM MOPS (pH 7.0), 0.2 mM EDTA and 250 μM GGMEDIYFEFMGGKKK to prepare an enzyme solution with a final concentration of 40.4 nM. An Mg/ATP mixture of 10 mM magnesium acetate and 10 μM [γ-^33P]-ATP was used to activate the enzymatic reaction.
(§6) The compound working solutions were added to a 384-well plate, with final concentrations of 10000 nM, 3000 nM, 1000 nM, 300 nM, 100 nM, 30 nM, 10 nM, 3 nM and 1 nM, respectively, and then different enzymatic reaction solutions prepared according to the above conditions were added. The reaction solutions were incubated at room temperature for 40 min, and then 0.5% phosphoric acid solutions were added to terminate the reaction. 10 μL of the reaction solution was added dropwise to P30 filter paper which was washed 4 times with a 0.425% phosphoric acid solution and once with methanol and then placed in a scintillation counter for detection. Gray analysis was performed on the results with Image J software, and IC50 values were calculated with GraphPad 5.0 software.

The target of a further experiment is T2, Mer (h) (Homo sapiens, UniProt Q12866).
T2 construct: purchased
T2 sequence (Q12866 21-999): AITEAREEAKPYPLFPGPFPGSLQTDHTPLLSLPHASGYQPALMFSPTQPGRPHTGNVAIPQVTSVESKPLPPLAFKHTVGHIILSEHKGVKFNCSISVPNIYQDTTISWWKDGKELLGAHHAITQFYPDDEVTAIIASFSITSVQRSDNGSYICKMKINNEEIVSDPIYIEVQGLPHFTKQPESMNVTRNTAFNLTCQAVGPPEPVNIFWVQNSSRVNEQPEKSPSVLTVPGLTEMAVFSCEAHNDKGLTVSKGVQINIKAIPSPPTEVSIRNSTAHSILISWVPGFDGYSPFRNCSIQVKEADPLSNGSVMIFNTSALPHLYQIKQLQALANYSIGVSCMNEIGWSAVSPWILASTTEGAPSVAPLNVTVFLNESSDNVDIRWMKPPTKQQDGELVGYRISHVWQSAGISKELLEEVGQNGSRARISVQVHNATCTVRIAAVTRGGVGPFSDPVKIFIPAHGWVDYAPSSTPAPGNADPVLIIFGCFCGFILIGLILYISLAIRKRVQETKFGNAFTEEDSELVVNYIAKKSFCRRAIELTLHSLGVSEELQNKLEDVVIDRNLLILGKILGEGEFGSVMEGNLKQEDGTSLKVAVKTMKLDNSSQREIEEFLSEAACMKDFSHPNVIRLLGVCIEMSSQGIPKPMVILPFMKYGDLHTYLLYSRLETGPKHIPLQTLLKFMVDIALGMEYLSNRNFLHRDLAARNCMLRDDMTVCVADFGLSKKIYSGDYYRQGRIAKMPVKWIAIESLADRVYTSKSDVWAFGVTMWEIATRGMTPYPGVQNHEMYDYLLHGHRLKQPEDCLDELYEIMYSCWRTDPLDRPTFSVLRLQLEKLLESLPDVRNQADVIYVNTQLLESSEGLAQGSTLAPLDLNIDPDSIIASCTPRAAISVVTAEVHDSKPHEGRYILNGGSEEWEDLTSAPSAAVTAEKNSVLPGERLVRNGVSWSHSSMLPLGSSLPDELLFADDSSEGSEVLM
Briefly: Enzymatic activity assay, Mer (h) kinase, [γ-33P]-ATP. Type of experiment: biochemical. Particulars: 10 μM [γ-33P]-ATP, 40 min, room temperature; read-out: Inhibitory Activity on Mer (h), IC50. The procedure: as §1, §2, §3, §4, §5
(3) Preparation of different enzymatic reaction solutions
Mer (h) enzyme was dissolved in a mixture of 8 mM MOPS (pH 7.0), 0.2 mM EDTA, 30 mM NaCl and 250 μM GGMEDIYFEFMGGKKK to prepare an enzyme solution with a final concentration of 3.1 nM. An Mg/ATP mixture of 10 mM magnesium acetate and 10 μM [γ-^33P]-ATP was used to activate the enzymatic reaction.
as §6

The next experiment concerns the target T3, H1299 cell pMer (Homo sapiens, UniProt Q12866).
T3 construct: endogenous in cells; host or cells: H1299
T3 sequence (Q12866 21-999): T2 sequence (Q12866 21-999)
Description: Inhibitory activity on cell pMer (H1299 cells, Human MerMab stimulation, Western Blot). Type of experiment: cell-based. Particulars: Human MerMab 200 ng/mL, tested at 0.37, 1.1, 3.3 and 10 nM. The procedure:
H1299 is a non-small cell lung cancer cell.
Test samples: the compounds of the present invention, having structures shown above.
Test instruments: protein electrophoresis apparatus (made by Bio Rad), membrane transfer apparatus (made by Bio Rad), exposure apparatus (made by Tanon), and CO2 cell incubator (made by Thermo).
H1299 cells were inoculated into a 6-well plate (containing 10% FBS 1640 medium, 5×10^5 cells per well) and adherently cultivated at 37° C. and 5% CO2 for 18 h. The cells were starved overnight, and compounds with different concentrations were added. The compounds had final concentrations of 0.37 nM, 1.1 nM, 3.3 nM and 10 nM, with DMSO having a final concentration of 1‰. There was a medium containing 10‰ DMSO in the negative control well. The cells were incubated at 37° C. and 5% CO2 for 60 min, and then Human MerMab (R&D, final concentration: 200 ng/mL) was added to each well. The cells were further incubated for 60 min, and then the total protein of the cells was extracted for Western Blot experiment. Gray analysis was performed on the results with Image J software, and IC50 values were calculated with GraphPad 5.0 software. The inhibitory activities of the compounds on cell pMer were detected.
(A western blot detects proteins with antibodies after separation by electrophoresis.)

Where only a bound is given, the exact number is not on record here.

T1 sequence (Q04912 25-1400): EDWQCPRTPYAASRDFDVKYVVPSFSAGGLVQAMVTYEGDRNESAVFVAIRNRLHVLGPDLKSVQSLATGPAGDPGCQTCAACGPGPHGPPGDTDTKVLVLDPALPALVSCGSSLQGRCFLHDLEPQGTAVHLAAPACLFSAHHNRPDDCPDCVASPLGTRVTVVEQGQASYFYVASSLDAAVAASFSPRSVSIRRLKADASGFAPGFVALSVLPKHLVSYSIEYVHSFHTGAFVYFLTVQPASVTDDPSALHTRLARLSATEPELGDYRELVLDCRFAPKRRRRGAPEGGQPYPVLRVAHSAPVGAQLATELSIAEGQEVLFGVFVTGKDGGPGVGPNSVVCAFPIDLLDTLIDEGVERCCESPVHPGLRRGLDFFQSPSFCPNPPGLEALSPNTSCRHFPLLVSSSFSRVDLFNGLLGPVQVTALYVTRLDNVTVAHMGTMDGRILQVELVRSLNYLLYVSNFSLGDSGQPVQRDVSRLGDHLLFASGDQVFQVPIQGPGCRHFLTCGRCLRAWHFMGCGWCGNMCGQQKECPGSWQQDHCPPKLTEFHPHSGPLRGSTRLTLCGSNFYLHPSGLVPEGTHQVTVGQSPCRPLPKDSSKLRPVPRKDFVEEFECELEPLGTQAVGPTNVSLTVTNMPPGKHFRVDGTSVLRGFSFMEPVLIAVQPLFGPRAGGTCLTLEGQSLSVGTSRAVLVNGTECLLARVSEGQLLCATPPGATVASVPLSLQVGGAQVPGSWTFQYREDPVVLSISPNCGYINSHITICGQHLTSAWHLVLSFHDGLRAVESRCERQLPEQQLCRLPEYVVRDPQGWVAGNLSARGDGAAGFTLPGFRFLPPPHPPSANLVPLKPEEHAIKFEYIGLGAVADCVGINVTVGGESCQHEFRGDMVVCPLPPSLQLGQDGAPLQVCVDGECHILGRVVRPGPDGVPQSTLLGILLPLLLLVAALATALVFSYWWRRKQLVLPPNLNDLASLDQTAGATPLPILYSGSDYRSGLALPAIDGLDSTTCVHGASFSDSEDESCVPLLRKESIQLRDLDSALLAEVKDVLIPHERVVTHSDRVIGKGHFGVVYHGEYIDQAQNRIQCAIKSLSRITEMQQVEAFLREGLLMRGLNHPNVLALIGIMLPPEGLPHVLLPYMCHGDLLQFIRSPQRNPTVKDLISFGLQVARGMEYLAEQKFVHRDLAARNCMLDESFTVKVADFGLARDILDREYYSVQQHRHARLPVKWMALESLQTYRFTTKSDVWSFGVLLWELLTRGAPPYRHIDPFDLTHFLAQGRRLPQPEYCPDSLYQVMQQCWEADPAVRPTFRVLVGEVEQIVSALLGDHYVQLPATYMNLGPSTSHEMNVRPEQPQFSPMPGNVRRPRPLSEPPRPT

The IC50 is the concentration at which inhibition is half-maximal. With `CC(C)n1cc(-c2ccc(F)cc2)c(=O)c(C(=O)Nc2ccc(Oc3ccnc(N)c3Cl)cn2)n1` [Compound 11, N-(5-((2-amino-3-chloropyridin-4-yl)oxy)pyridin-2-yl)-5-(4-fluorophenyl)-1-isopropyl-4-oxo-1,4-dihydropyridazine-3-carboxamide], the IC50 was determined as 2 nM at Ron (h), 9 nM on Mer (h) and 1.1 nM at H1299 cell pMer.
The matching figures for `CC(C)n1cc(-c2ccc(F)cc2)c(=O)c(C(=O)Nc2ncc(Oc3ccnc(N)c3Cl)cn2)n1` [Compound 12, N-(5-((2-amino-3-chloropyridin-4-yl)oxy)pyrimidin-2-yl)-5-(4-fluorophenyl)-1-isopropyl-4-oxo-1,4-dihydropyridazine-3-carboxamide]: 19 nM, 8 nM and 1.1 nM.
The matching figures for `CC(C)n1cc(-c2ccc(F)cc2)c(=O)c(C(=O)Nc2ccc(Oc3ccnc(N)c3Cl)nc2)n1` [Compound 13, N-(6-((2-amino-3-chloropyridin-4-yl)oxy)pyridin-3-yl)-5-(4-fluorophenyl)-1-isopropyl-4-oxo-1,4-dihydropyridazine-3-carboxamide]: 16 nM, 8 nM and 3.3 to 10 nM.
The matching figures for `Nc1nccc(Oc2ccc(NC(=O)c3nn(C4CC4)cc(-c4ccc(F)cc4)c3=O)nc2)c1Cl` [Compound 17, N-(5-((2-amino-3-chloropyridin-4-yl)oxy)pyridin-2-yl)-1-cyclopropyl-5-(4-fluorophenyl)-4-oxo-1,4-dihydropyridazine-3-carboxamide]: 7 nM, 2 nM and < 1.1 nM.
`Nc1nccc(Oc2cnc(NC(=O)c3nn(C4CC4)cc(-c4ccc(F)cc4)c3=O)nc2)c1Cl` [Compound 18, N-(5-((2-amino-3-chloropyridin-4-yl)oxy)pyrimidin-2-yl)-5-(4-fluorophenyl)-1-cyclopropyl-4-oxo-1,4-dihydropyridazine-3-carboxamide]: the IC50 at Ron (h) was found to be 14 nM; on Mer (h), 6 nM; at H1299 cell pMer it was 1.1 nM.
The matching figures for `Nc1nccc(Oc2ccc(NC(=O)c3nn(C4CC4)cc(-c4ccc(F)cc4)c3=O)cn2)c1Cl` [Compound 19, N-(6-((2-amino-3-chloropyridin-4-yl)oxy)pyridin-3-yl)-1-cyclopropyl-5-(4-fluorophenyl)-4-oxo-1,4-dihydropyridazine-3-carboxamide]: 64 nM, 18 nM and 10 nM.
Take `Cn1cc(-c2ccc(F)cc2)c(=O)c(C(=O)Nc2ccc(Oc3ccnc(N)c3Cl)cn2)n1` [Compound 33, N-(5-((2-amino-3-chloropyridin-4-yl)oxy)pyridin-2-yl)-5-(4-fluorophenyl)-1-methyl-4-oxo-1,4-dihydropyridazine-3-carboxamide]: the figures for the IC50 on Ron (h), at Mer (h) and at H1299 cell pMer were 17 nM, 3 nM and 3.3 nM, respectively.
The matching figures for `C=CCn1cc(-c2ccc(F)cc2)c(=O)c(C(=O)Nc2ccc(Oc3ccnc(N)c3Cl)cn2)n1` [Compound 35, 1-allyl-N-(5-((2-amino-3-chloropyridin-4-yl)oxy)pyridin-2-yl)-5-(4-fluorophenyl)-4-oxo-1,4-dihydropyridazine-3-carboxamide]: 5 nM, 4 nM and 0.37 nM.
The matching figures for `C=CCn1cc(-c2ccc(F)cc2)c(=O)c(C(=O)Nc2ncc(Oc3ccnc(N)c3Cl)cn2)n1` [Compound 37]: 12 nM, 7 nM and 3.3 nM.
The like results for `C=CCn1cc(-c2ccc(F)cc2)c(=O)c(C(=O)Nc2ccc(Oc3ccnc(N)c3Cl)nc2)n1` [Compound 39, 1-allyl-N-(6-((2-amino-3-chloropyridin-4-yl)oxy)pyridin-3-yl)-5-(4-fluorophenyl)-4-oxo-1,4-dihydropyridazine-3-carboxamide] were, in that order, 12 nM, 3 nM and 3.3 to 10 nM.
